From PubChem BioAssay (NCI)
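Interpolation was linear, between the two tested concentrations surrounding the appropriate level; five concentrations were tested over 48 hours in 96-well plates. GI50: concentration for 50% inhibition of growth. Definition used: TGI = concentration required for complete inhibition of growth.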

How the values were obtained:
Assay in all cases: inhibition of tumour cell growth, NCI panel, 48 h
CAKI-1 renal = tested on: CAKI-1 renal
K-562 leukemia = tested on: K-562 leukemia
A549 NSCLC = tested on: A549 NSCLC
OVCAR-3 ovarian = tested on: OVCAR-3 ovarian
CCRF-CEM leukemia = tested on: CCRF-CEM leukemia
SNB-19 CNS = tested on: SNB-19 CNS
COLO 205 colon = tested on: COLO 205 colon
SF-268 CNS = tested on: SF-268 CNS
SF-295 CNS = tested on: SF-295 CNS
EKVX NSCLC = tested on: EKVX NSCLC

Row | SMILES | TGI (CAKI-1 renal) | TGI (K-562 leukemia) | TGI (A549 NSCLC) | TGI (OVCAR-3 ovarian) | TGI (CCRF-CEM leukemia) | TGI (SNB-19 CNS) | TGI (COLO 205 colon) | TGI (SF-268 CNS) | TGI (SF-295 CNS) | TGI (EKVX NSCLC) | GI50 (CAKI-1 renal) | GI50 (K-562 leukemia) | GI50 (A549 NSCLC) | GI50 (OVCAR-3 ovarian) | GI50 (CCRF-CEM leukemia) | GI50 (SNB-19 CNS) | GI50 (COLO 205 colon) | GI50 (SF-268 CNS) | GI50 (SF-295 CNS) | GI50 (EKVX NSCLC)
1 | O=C1CCC(c2ccccc2)(c2ccccc2)CC1 | > 100 µM | > 100 µM | > 100 µM | > 100 µM | 52 µM | > 100 µM | 89.9 µM | > 100 µM | > 100 µM | > 100 µM | – | – | – | – | – | – | – | – | – | –
2 | Nc1nc(Cl)cc(NCCCCCCCCCCNc2cc(Cl)nc(N)n2)n1 | > 100 µM | > 100 µM | > 100 µM | > 100 µM | > 100 µM | > 100 µM | > 100 µM | > 100 µM | 46.4 µM | > 100 µM | – | – | – | – | – | – | – | – | – | –
3 | CCNC1=CC(=O)c2ncccc2C1=O | 21.1 µM | 12.5 µM | 3.38 µM | 5.41 µM | 42.4 µM | 6.7 µM | 3.3 µM | 17.3 µM | 2.56 µM | 18.5 µM | 7.5 µM | 2.84 µM | 1.2 µM | 0.807 µM | 6.14 µM | 1.59 µM | 1.63 µM | 3.13 µM | 1.23 µM | 4.68 µM
4 | CCOc1ccc(N2C(N)=NC(N)=NC2(C)C)cc1 | > 100 µM | > 100 µM | > 100 µM | > 100 µM | > 100 µM | > 100 µM | > 100 µM | > 100 µM | > 100 µM | – | > 100 µM | 36 µM | 50.1 µM | > 100 µM | > 100 µM | 55.8 µM | 69.9 µM | 49.3 µM | 48.1 µM | –
5 | NC(=O)c1ccc(NC(=O)c2oc3ccccc3c2-c2cnn(-c3ccccc3)c2)cc1 | – | > 100 µM | – | – | > 23.2 µM | > 100 µM | – | > 100 µM | > 100 µM | – | – | > 100 µM | – | – | – | 8.98 µM | – | 5.79 µM | > 35.5 µM | –
6 | CCn1c(-c2cc3ccccc3cc2OC(=O)c2ccccc2)n[nH]c1=S | > 50 µM | > 50 µM | > 50 µM | > 50 µM | – | > 50 µM | > 50 µM | > 50 µM | > 50 µM | > 50 µM | 24.7 µM | 22.5 µM | > 50 µM | 3.19 µM | – | > 50 µM | > 50 µM | > 50 µM | 27 µM | 10.7 µM
7 | O=[N+]([O-])C(=C(c1ccccc1)c1ccccc1)[N+](=O)[O-] | 43.2 µM | > 100 µM | 51.3 µM | 35.5 µM | 22.1 µM | 31.3 µM | 24.9 µM | 12.7 µM | 26.3 µM | – | – | – | – | – | – | – | – | – | – | –
8 | C=C1C(=O)C23C(CC(OC(C)=O)C1[C@@H]2OC(C)=O)C1(C)C(OC(C)=O)CCC(C)(C)C1C[C@@H]3OC(C)=O (stereo partly drawn) | 1.94 µM | 3.6 µM | 3.05 µM | 3.03 µM | – | 3.31 µM | – | 2.98 µM | 2.86 µM | 5.38 µM | – | – | – | – | – | – | – | – | – | –
9 | C/C(=N\NC(=S)Nc1ccc([N+](=O)[O-])cc1S(=O)(=O)O)c1ccccn1 | > 100 µM | > 100 µM | > 100 µM | 72.7 µM | > 100 µM | – | > 100 µM | > 100 µM | > 100 µM | > 100 µM | – | – | – | – | – | – | – | – | – | –
10 | CC1=C[C@H]2C[C@@]3(C)O[C@@H]([C@]4(C)CC[C@H]([C@@H](C)C(=O)O)OO4)CC3C(C)(C)[C@H]2CC1 (stereo partly drawn) | 2.89 µM | – | 3.62 µM | 3.29 µM | – | 3.28 µM | 3.31 µM | 4.2 µM | 3.44 µM | 3.67 µM | – | – | – | – | – | – | – | – | – | –
11 | O=C(Nc1ccc(-c2nc3ccc(NC(=O)c4ccc(Cl)cc4)cc3[nH]2)cc1)c1ccc(Cl)cc1 | 23.7 µM | 4.57 µM | 5.08 µM | 11.4 µM | 4.41 µM | 28.4 µM | 6.54 µM | 18.5 µM | 8.77 µM | – | 7.12 µM | 0.487 µM | 2.05 µM | 3.31 µM | 0.433 µM | 13.8 µM | 2.47 µM | 5.78 µM | 0.23 µM | –
12 | COCCn1cc(-c2csc(-c3c[nH]c4ccc(F)cc34)n2)c2cccnc21 | > 100 µM | > 100 µM | > 100 µM | > 100 µM | – | > 100 µM | > 100 µM | > 100 µM | > 100 µM | > 100 µM | 9.54 µM | 2.12 µM | 4.51 µM | 3.34 µM | – | 98 µM | 2.69 µM | 7.67 µM | 3.2 µM | 1.98 µM
13 | CN(C)c1ccc(/C=N/Nc2ccc(-c3nc4ccccc4[nH]3)cc2)cc1 | > 50 µM | 16.3 µM | 27.1 µM | > 50 µM | – | > 50 µM | > 50 µM | 39.8 µM | > 50 µM | > 50 µM | 5 µM | 2.86 µM | 9.33 µM | 31.7 µM | – | 17.3 µM | 20.3 µM | 7.36 µM | 3.19 µM | 17.6 µM
